# Source: patent publication US10787432B2, “N-[(pyridyloxy)propanyl]benzamides” (Boehringer Ingelheim International GmbH, priority 2016, dated 2020)
# Like-named read-outs stand apart in the source and are kept apart here.
# Columns and labels:
# [1] = Assay C: Metabolic stability in human liver microsomes (Human MST); assay type: in vitro ADME; settings: pooled human liver microsomes, pH 7.6; human liver microsomes 1 mg/mL, compound 1 μM, 37° C., NADPH; read-out: Human MST t1/2
# Procedure: C. Assessment of Metabolic Stability in Human Liver Microsomes (Human MST)
# The metabolic stability of the compounds according to the invention may be investigated as follows:
# The metabolic degradation of the test compound is assayed at 37° C. with pooled human liver microsomes. The final incubation volume of 100 μL per time point contains TRIS buffer pH 7.6 at room temperature (0.1 M), MgCl2 (5 mM), microsomal protein (1 mg/mL) and the test compound at a final concentration of 1 μM. Following a short pre-incubation period at 37° C., the reactions are initiated by addition of beta-nicotinamide adenine dinucleotide phosphate, reduced form (NADPH, 1 mM), and terminated by transferring an aliquot into solvent after different time points. After centrifugation (10000 g, 5 min), an aliquot of the supernatant is assayed by LC-MS/MS for the amount of parent compound. The half-life (t1/2) is determined by the slope of the semi-logarithmic plot of the concentration-time profile.
# human orexin 2 receptor = molecular target: T1, human orexin 2 receptor (Homo sapiens, UniProt O43614); test: Assay B: In vitro testing of OX2R potency: OX2R IP1 (HTRF, CHO-K1/hOX2 cells, Orexin A as agonist); assay type: cell-based
# T1 construct: stably expressing the full-length human orexin 2 receptor; expressed in transfected cells; host or cells: CHO-K1 (CHO-K1/hOX2), co-expressing aequorin
# T1 sequence (O43614 1-444): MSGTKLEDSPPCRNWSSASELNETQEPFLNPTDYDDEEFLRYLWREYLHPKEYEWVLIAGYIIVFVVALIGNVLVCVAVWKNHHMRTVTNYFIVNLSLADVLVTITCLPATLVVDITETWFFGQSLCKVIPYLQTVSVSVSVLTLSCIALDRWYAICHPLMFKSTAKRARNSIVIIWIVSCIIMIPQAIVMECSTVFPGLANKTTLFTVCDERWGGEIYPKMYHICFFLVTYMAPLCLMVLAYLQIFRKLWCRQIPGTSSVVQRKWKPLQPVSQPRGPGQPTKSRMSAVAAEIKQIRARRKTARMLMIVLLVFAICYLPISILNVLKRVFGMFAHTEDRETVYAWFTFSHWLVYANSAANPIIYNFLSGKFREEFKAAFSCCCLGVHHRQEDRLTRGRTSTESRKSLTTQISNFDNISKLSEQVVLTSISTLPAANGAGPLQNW
# Text: Activation of the orexin receptors expressed in cell lines results in an increase in intracellular IP3 concentration. IP1, a downstream metabolite of IP3, accumulates in cells following receptor activation and is stable in the presence of LiCl. Using Homogeneous Time-Resolved Fluorescence technology with Lumi4-Tb cryptate (commercially available from Cisbio Bioassay.) and a suitable fluorescence plate reader. […] Chem. Genomics 2009, 3, 22-32. This technique is used to characterize pharmacological modification of the orexin receptors.
# B. In Vitro Testing of OX2R Potency: OX2R IP1
# IP1 measurements are performed in CHO-K1 cells stably expressing the full-length human orexin 2 receptor and the aequorin photoprotein. Cells are cultivated in Ham's nutrient mixture F12 medium with 10% fetal calf serum, in a 37° C., 95% humidity and 5% CO2 incubator. The CHO-K1/hOX2 cell mass is expanded to larger cell numbers. The cells are obtained as frozen cells in cryo-vials and stored until use at −150° C. The viability of the cells after thawing is >90%. In preparation for the assay, 24 hours before the assay, the cells are thawed at 37° C. and immediately diluted with cell culture medium. After centrifugation, the cell pellet is resuspended in medium and then distributed into the assay plates with a density of 5000 cells/25 μL per well. The plates are incubated for one hour at room temperature to reduce edge effects before they are incubated for 24 hours at 37° C./5% CO2. Compounds are prepared by a 8-point serial dilution in DMSO and a final dilution step into assay buffer (HBSS with 20 mM HEPES, 0.1% BSA and 50 mM LiCl, pH 7.4) to ensure a final DMSO concentration of 1% in the assay.
# On the day of the assay, cells in the plate are washed twice with 60 μL assay buffer (20 μL buffer remained in the wells after washing), followed by adding 5 μL per well of compounds diluted in assay buffer. After 15 minutes of incubation at room temperature 5 μL per well of Orexin A peptide (final concentration: 0.5 nM) dissolved in assay buffer is added to the assay plate. The assay plate is incubated for 60 minutes at 37° C. Then 5 μL per well of Anti-IP1-Cryptate Tb solution and 5 μL per well of IP1-d2 dilution are added to all well of the plate and the plate is incubated for a further 60 minutes light protected at room temperature. The emission at 615 nm and 665 nm (Excitation wavelength: 320 nm) are measured using an EnVision reader (PerkinElmer). The ratio between the emission at 665 nm and 615 is calculated by the reader.
# 8-point four parametric non-linear curve fitting and determination of IC50 values and Hill slopes is performed using a regular analysis software e.g. AssayExplorer (Accelrys). In order to establish an agonist concentration independent parameter, Kb values are calculated using the following equation: IC50/((2+(A/EC50)n)^1/n−1) (with A=concentration agonist, EC50=EC50 agonist, n=Hill slope agonist) (see P. Leff, I. G. Dougall, Trends Pharmacol. Sci. 1993, 14(4), 110-112).
# Kb values from Assay A (OX1R) and Assay B (OX2R) can then provide a selectivity ratio which is independent of the agonist (Orexin A) concentration.
# human Orexin 1 receptor = molecular target: T2, human Orexin 1 receptor (Homo sapiens, UniProt O43613); test: Assay A: In vitro testing of OX1R potency: OX1R IP1 (HTRF, CHO-K1/hOX1 cells, Orexin A as agonist); assay type: cell-based
# T2 construct: stably expressing the full-length human Orexin 1 receptor; expressed in transfected cells; host or cells: CHO-K1 (CHO-K1/hOX1), co-expressing aequorin
# T2 sequence (O43613 1-425): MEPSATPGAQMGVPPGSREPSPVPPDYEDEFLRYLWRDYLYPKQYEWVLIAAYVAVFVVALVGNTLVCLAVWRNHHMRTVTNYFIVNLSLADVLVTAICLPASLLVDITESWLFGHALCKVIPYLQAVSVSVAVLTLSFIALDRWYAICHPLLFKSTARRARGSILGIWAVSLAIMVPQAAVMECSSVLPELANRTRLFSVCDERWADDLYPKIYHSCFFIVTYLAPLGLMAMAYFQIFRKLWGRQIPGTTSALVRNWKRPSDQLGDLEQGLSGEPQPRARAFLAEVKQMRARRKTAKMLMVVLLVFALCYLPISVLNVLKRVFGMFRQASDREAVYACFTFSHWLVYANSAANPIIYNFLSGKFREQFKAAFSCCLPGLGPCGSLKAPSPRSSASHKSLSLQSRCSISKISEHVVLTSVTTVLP
# [2] = Orexin A 0.5 nM, read-out: OX1R Kb (Orexin A concentration used)
# [3] = Orexin A 50 nM, read-out: OX1R Kb (Orexin A concentration used)
Structure (SMILES),half-life at 1 μM [1] [min],Kb (human orexin 2 receptor; Orexin A 0.5 nM) [nM],OX2R Kb/OX1R Kb (human Orexin 1 receptor; OX1R Kb at 0.5 nM Orexin A),Kb (human Orexin 1 receptor; [2]) [nM],OX2R Kb/OX1R Kb (human Orexin 1 receptor; OX1R Kb at 50 nM Orexin A),Kb (human Orexin 1 receptor; [3]) [nM],Kb (human orexin 2 receptor) [nM],Kb (human Orexin 1 receptor) [nM]
CCN(C(=O)c1ccc(C#N)cc1-n1nccn1)[C@@H](C)COc1ccc(C(F)(F)F)cn1 [Example 103],58,1170,273,4.28,–,–,–,–
CCN(C(=O)c1ccc(C)cc1-c1nnc(C)o1)[C@@H](C)COc1ccc(Cl)cn1 [Example 38],11,877,313,2.8,–,–,–,–
CCN(C(=O)c1ccc(F)cc1-c1nnc(C)o1)[C@@H](C)COc1ncc(C(F)(F)F)cc1F [Example 55],64,3100,430,7.2,–,–,–,–
CCN(C(=O)c1cccc(F)c1-c1ncccn1)[C@@H](C)COc1ccc(Br)cn1 [Example 125],> 130,27,–,–,355,0.076,–,–
CCN(C(=O)c1c(-n2nccn2)ccc(C)c1F)[C@@H](C)COc1ccc(C(F)(F)F)cn1 [Example 92],18,16,–,–,640,0.025,–,–
CCN(C(=O)c1cccc(Cl)c1-n1nccn1)[C@@H](C)COc1ncc(C(F)(F)F)cc1F [Example 49],81,22,–,–,333,0.066,–,–
CCN(C(=O)c1ccc(F)cc1-c1ncccn1)[C@@H](C)COc1ccc(C(F)(F)F)cn1 [Example 108],50,45,–,–,409,0.11,–,–
CCN(C(=O)c1ccccc1-c1nnc(C)o1)[C@@H](C)COc1ccc(C(F)(F)F)cn1 [Example 22],84,202,217,0.93,168,1.2,–,–
CCN(C(=O)c1c(F)cccc1-n1nccn1)[C@@H](C)COc1ncc(C(F)(F)F)cc1F [Example 56],48,108,98,1.1,257,0.42,–,–
CCN(C(=O)c1cc(F)ccc1-c1ncccn1)[C@@H](C)COc1ccc(C(F)(F)F)cn1 [Example 107],65,32,–,–,500,0.064,–,–
CCN(C(=O)c1cccc(F)c1-n1nccn1)[C@@H](C)COc1ccc(F)c(C(F)(F)F)n1 [Example 133],21,–,63,–,–,–,101,1.6
CCN(C(=O)c1cccc(C)c1-c1nnc(C)o1)[C@@H](C)COc1ncc(C(F)(F)F)cc1F [Example 64],15,155,–,–,705,0.22,–,–
CCN(C(=O)c1cccc(F)c1-c1ncccn1)[C@@H](C)COc1ccc(C(F)(F)F)cn1 [Example 97],100,20,–,–,800,0.025,–,–
CCN(C(=O)c1cccc(F)c1-n1nccn1)[C@@H](C)COc1ccc(Br)cn1 [Example 111],62,49,123,0.4,213,0.23,–,–
CCN(C(=O)c1cccc(F)c1-c1nnc(C)o1)[C@@H](C)COc1ccc(C(F)(F)F)cn1 [Example 18],74,218,273,0.8,–,–,–,–
CCN(C(=O)c1cc(F)cc(F)c1-n1nccn1)[C@@H](C)COc1ccc(Cl)cn1 [Example 32],46,117,106,1.1,143,0.82,–,–
CCN(C(=O)c1ccccc1-c1ccc(=O)n(C)c1)[C@@H](C)COc1ccc(C(F)(F)F)cn1 [Example 96],34,1610,217,7.4,–,–,–,–
CCN(C(=O)c1ccc(F)cc1-c1nnc(C)o1)[C@@H](C)COc1ccc(C(F)(F)F)cn1 [Example 14],> 130,2070,461,4.5,–,–,–,–
CCN(C(=O)c1ccccc1-c1nnc(C)o1)[C@@H](C)COc1ncc(C(F)(F)F)cc1F [Example 68],53,1000,527,1.9,–,–,–,–
CCN(C(=O)c1cc(F)ccc1-n1nccn1)[C@@H](C)COc1ccc(C(F)(F)F)cn1 [Example 3],62,44,–,–,157,0.28,–,–
CCN(C(=O)c1cccc(C)c1-c1nnc(C)o1)[C@@H](C)COc1ccc(Cl)cn1 [Example 39],23,82,93,0.88,152,0.54,–,–
CCN(C(=O)c1ccccc1-c1ccn(C)n1)[C@@H](C)COc1ccc(C(F)(F)F)cn1 [Example 74],14,48,123,0.39,229,0.21,–,–
"CC[C@@H](CNc1ccc(C(F)(F)F)cn1)N(C)C(=O)c1cc(Cl)ccc1-n1nccn1 [Ex 42 in WO2016/034882, reference compound]",7,229,–,–,–,–,–,–
"CC[C@@H](CNc1ccc(Cl)cn1)N(C)C(=O)c1cc(C)ccc1-n1nccn1 [Ex 1 in WO2016/034882, reference compound]",5,36,–,–,–,–,–,–
